Laboratory results reported in patent publication US20130324606A1, “Ester Derivatives of Bimatoprost Compositions and Methods” (ALLERGAN, INC., priority 2011, published 2013).

What was measured:
[1] = microAmes mutagenesis screen; format: cell-based; conditions: with or without metabolic activation
Text: Cmpds IVa, IIIb, and IVb were subjected to the microAmes screen, as known in the art.

[2] = Compound distribution in mouse skin by MALDI-MS imaging; format: in vivo
Description: In order to determine the penetration, accumulation and/or differential distribution of bimatoprost and compounds disclosed herein upon dermal administration, MALDI-MS (matrix assisted laser desorption ionization mass spectroscopy) imaging was conducted on explanted samples of mouse skin after topical dermal administration.
MALDI-MS imaging was conducted on mouse skin strips after administration of bimatoprost or compound disclosed herein once daily for 3 days. Samples of mouse skin were recovered 4 hr after day-3 dosing of compound. Dermal administration was conducted with vehicle, 0.03% bimatoprost, 3% bimatoprost, 0.03% Cmpd IVa, and 3% Cmpd IVa.
FIG. 16A depicts a typical explanted sample of mouse skin for these studies, wherein Cmpd IVa was applied via dermal administration. FIG. 16B depicts the result of MALDI-MS imaging. The intensity of each pixel within FIG. 16B reflects the concentration of Cmpd IVa at the corresponding point in the image depicted in FIG. 16A. FIG. 16C depicts a representative mass spectrum, corresponding to the region of FIG. 16B indicated by the white circle within FIG. 16B. Accordingly, each pixel of the image of FIG. 16B has an associated mass spectrum, providing the amounts of bimatoprost or other administered compound or metabolite thereof.

mouse skin = experiment: Pathology assessment of mouse hair regrowth model; format: in vivo, mice; conditions: histology, 0.03% active, vehicle control still in growth phase
Text: Histological samples from test subjects employed in the studies described in Example 12 were obtained for pathology assessment.

[3] = Formulation and stability studies; format: physicochemical; conditions: variations of Formulation A, 0.03% active, pH 4, 5, 6 and 7; 25, 40 and 60° C.; zero time and 80-days
Description: Stability over time of compounds disclosed herein was determined in formulation as a function of temperature and pH. Variations of Formulation A described herein were employed wherein the target concentration of active agent was 0.03%, and the pH was varied at pH 4, 5, 6 and 7. Temperatures of 25° C., 40° C. and 60° C. were maintained during the experiment. Samples were evaluated at zero time and 80-days.
Cmpds IVa, IIIb, and IVb for evaluated for stability.
FIGS. 1A-1B, 2A-2B, and 3A-3B depict histograms of relative concentrations of test compounds (arbitrary scale) at zero time or 80-days. FIG. 1A depicts a histogram of the stability profile of Cmpd IVa as a function of pH and temperature. FIG. 1B depicts a histogram of the formation of bimatoprost as a function of pH and temperature after 80-days for Cmpd IVa. FIG. 2A depicts a histogram of the stability profile of Cmpd IVb as a function of pH and temperature. FIG. 2B depicts a histogram of the formation of bimatoprost as a function of pH and temperature after 80-days for Cmpd IVb. FIG. 3A depicts a histogram of the stability profile of Cmpd IIIb as a function of pH and temperature. FIG. 3B depicts a histogram of the formation of bimatoprost as a function of pH and temperature after 80-days for Cmpd IIIb.

C57Black/6J mice = experiment: Piliation (hair regrowth) studies in mice; format: in vivo; conditions: mouse hair regrowth
Description: C57Black/6J, 7-week old female mice (n=10) were employed in piliation studies. Dorsal hair was shaved (area ˜2 cm×4 cm). Dosing of active agent was once per day (QD) by topical administration for 14 days. Observations were conducted for 42-days to determine onset of new hair growth and day of hair growth completion. Compounds were formulated as either a) 50% propylene glycol, 30% ethanol, 20% water, or b) the formulation of Formulation A described above. The experiments reported for FIGS. 4A-4B, 5A-5B, 6A-6B, 8A-8B, and 9A-9B were conducted using a vehicle with formulation of 50% propylene glycol, 30% ethanol, 20% water. The experiments reported for FIGS. 7A-7B were conducted using a vehicle of Formulation A described above.
For each of FIGS. 4A, 5A, 6A, 7A, 8A and 9A, the histograms depict the day of onset of hair growth. For each of FIGS. 4B, 5B, 6B, 7B, 8B and 9B, the histograms depict the day achieving full hair growth.

[4] = In vitro human skin penetration (Franz diffusion chamber); format: in vitro ADME
Text: Test material: Dermatomed ex vivo human cadaver posterior trunk skin on 1.0 cm^2 Franz diffusion chamber as known in the art. Test size: 3 skin donors (obtained from New York Firefighters Skin Bank), 3 replicates per donor per formulation. Test formulations: 0.03% active agent (Cmpd IVa, Cmpd IIIb, Cmpd IVb) in Formulation A; control formulation: bimatoprost at 0.03% in Formulation A. Dosing regimen: receptor fluid at 2, 4, 24, and 48 hrs; SC/epidermis and dermis at 48 hrs. Sample analysis: LC/MS-MS to detect bimatoprost and Cmpds IVa, IIIb and IVb.

[5] = Pharmacokinetic assessment of mouse hair regrowth model; format: in vivo; conditions: mice, 0.03% dermal daily ~60 uL, all measured time points, LC/MS-MS
Description: Female C57BL/6J mice (n=2) were assayed per time point per treatment group. Treatment groups: (1) vehicle; (2) 0.03% Cmpd IVa; (3) 0.03% Cmpd IIIb; (4) 0.03% Cmpd IVb; (5) 0.03% bimatoprost. Treatment dosing: dermal daily application of ˜60 uL test compound solution. Blood and skin pharmacokinetic time points were obtained at day 1 (1, 4, 8 and 24-hrs post-dose); day 2 (24-hrs post-dose); day 14 (24-hrs post-dose); and day 42 (28 days post day 14 dose). Bioanalysis employed LC/MS-MS.

[6] = In vitro human skin penetration (Franz diffusion chamber); format: in vitro ADME; conditions: FIGS. 14A-14C, 6, 24, 48 hr
[7] = Dermal tolerability in rats; format: in vivo; conditions: female rats
Description: Female rats were administered either vehicle or one of Cmpds IVa, IIIb, or IVb daily for 8 days. The administered dose was 3 mg/kg/day, at a concentration of 3 mg/mL. Observed data were body weight, viability, food consumption, and dermal observation (skin reaction grading), as known in the art. The vehicle was Formulation A. See Table 1 above.

[8] = dermal 3 mg/kg/day daily for 8 days, Formulation A

CCNC(=O)CCC/C=C\C[C@@H]1[C@@H](/C=C/[C@H](CCc2ccccc2)OC(C)=O)[C@H](O)C[C@@H]1O [Cmpd IVa, 15-acetyl-bimatoprost]
mutagenicity in microAmes screen [1]: not mutagenic | detectability in mouse skin by MALDI-MS imaging ([2]; after topical dermal administration at 0.03%): detectable | skin penetration of 3.0% compound compared with 3.0% bimatoprost ([2]; topical dermal administration, MALDI-MS): similar | hair cycle phase at day-42 (mouse skin): returned to the resting phase | stability in formulation [3]: stable in formulation | effectiveness of 0.03% compound compared to 0.1% to 0.3% bimatoprost (C57Black/6J mice): approximately equally effective | pharmacological efficacy relative to bimatoprost (C57Black/6J mice; vehicle 50% propylene glycol, 30% ethanol, 20% water): efficacy greater than bimatoprost | pharmacological efficacy relative to bimatoprost (C57Black/6J mice; vehicle Formulation A): efficacy greater than bimatoprost | skin penetration (cumulative amount in receptor solution) relative to bimatoprost ([4]; 0.03% in Formulation A, FIG. 13A): significantly greater than for bimatoprost | penetration flux relative to bimatoprost ([4]; 0.03% in Formulation A, FIG. 13B): greater than that for bimatoprost | Percentage Dose Applied, Receptor Chamber Solution, Prodrug ([4]; 0.03% in Formulation A, Franz chamber, dosed compound): 4.3 Percentage Dose Applied | Percentage Dose Applied, Upper ⅓ Dermis, Prodrug ([4]; 0.03% in Formulation A, dermis at 48 hrs, dosed compound): 3.8 Percentage Dose Applied | conversion to bimatoprost in the SC/Epi/Dermis layers ([4]; FIG. 15A): converted to bimatoprost | amount of active agent in the upper third of the dermis relative to bimatoprost ([4]; FIG. 15B): less than observed for bimatoprost | level in the systemic circulation [5]: most undetectable | conversion to bimatoprost in the receptor chamber solution [6]: observed to convert to bimatoprost | change in food consumption and body weight gain (in words) ([7]; 3 mg/kg/day daily for 8 days): no significant change in food consumption or body weight gain | dermal observation: signs of irritation ([7]; 3 mg/kg/day, days 2-4): minimal and transient signs of irritation | Body Weight Gain (g) Mean ± SD [7, 8]: 9.0 ± 3.0 g | Food Consumption (g) Mean ± SD [7, 8]: 21.14 ± 1.08 g
